Test results as given in patent publication US8921406B2, “5-ring heteroaromatic compounds and their use as binding partners for 5-HT5 receptors” (AbbVie Deutschland GmbH & Co. KG, priority 2005, dated 2014).
Where a name gives a salt, the structure may show the parent alone.

Molecular target: T1, h5-HT5A receptor (Homo sapiens, UniProt P47898)
T1 construct: expressed in transfected cells
Test: h5-HT5A-[3H]5-CT binding assay
Conditions: membranes of HEK293 cells expressing h5-HT5A; 2.5 nM [3H]5-CT; read-out: Binding affinity 5-HT5A (Ki)
Description: 1. h5-HT5A-[^3H]5-CT Binding Assay
Membranes of HEK293 cells which permanently express the h5-HT5A receptor gene were incubated in 100 mM tris-HCl buffer (pH 7.7) containing 1 mM EDTA, in the presence of 2.5 nM [^3H]5-CT (total volume 600 μL). The total binding is defined as the binding that is observed when the membranes are incubated in the presence of only the radioligand. The inhibition induced by the compound is determined by incubation of cell membranes in the presence of the radioligand and various concentrations of the compound of interest. Nonspecific binding is defined as the [^3H]5-CT binding obtained by incubation of the membranes, the same as for the total binding, but in the presence of 10 μM methiothepine. Following incubation for 75 min at 30° C., the membrane suspension was filtered through a GF/B-Filter coated with 0.03% PEI, using a Skatron® harvesting system. The residual radioactivity in the filter was quantified by liquid scintillation counting.
Various concentrations of the test substances were used in both assays, and the Ki or IC50 values were determined.

T1 sequence (P47898 whole entry): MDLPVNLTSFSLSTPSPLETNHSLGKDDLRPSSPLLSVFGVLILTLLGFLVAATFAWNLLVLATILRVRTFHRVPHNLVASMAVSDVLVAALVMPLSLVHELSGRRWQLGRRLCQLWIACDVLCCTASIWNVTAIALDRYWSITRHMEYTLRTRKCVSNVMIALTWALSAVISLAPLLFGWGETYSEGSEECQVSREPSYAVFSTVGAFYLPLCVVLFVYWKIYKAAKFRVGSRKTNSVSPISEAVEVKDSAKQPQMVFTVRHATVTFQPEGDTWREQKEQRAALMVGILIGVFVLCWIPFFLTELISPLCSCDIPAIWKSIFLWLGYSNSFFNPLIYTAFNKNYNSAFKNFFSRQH

| Ki [nM] | Structure (SMILES) |
| --- | --- |
| < 600 | COc1ccccc1Cn1cc(-c2ccc(Br)cc2)nc1N [Example 1, 4-(4-Bromophenyl)-1-(2-methoxybenzyl)-1H-imidazole-2-ylamine] |
| < 600 | COc1ccccc1Cn1cc(-c2ccc([N+](=O)[O-])cc2)nc1N [Example 2, 1-(2-Methoxybenzyl)-4-(4-nitrophenyl)-1H-imidazole-2-ylamine] |
| < 600 | COc1ccccc1Cc1nc(-c2ccccc2)[nH]c1N [Example 3, 5-(2-Methoxybenzyl)-2-phenyl-3H-imidazole-4-ylamine] |
| > 600 | COc1ccccc1Cc1cn(-c2ccccc2)nc1N [Example 4, 4-(2-Methoxybenzyl)-1-phenyl-1H-pyrazole-3-ylamine] |
| > 600 | COc1ccccc1Cn1nc(-c2ccccc2)nc1N [Example 5, 2-(2-Methoxybenzyl)-5-phenyl-4H-[1,2,4]triazole-3-ylamine] |
| > 600 | COc1ccc(-n2cc(Cc3ccccc3OC)c(N)n2)cc1 [Example 6, 4-(2-Methoxybenzyl)-1-(4-methoxyphenyl)-1H-pyrazole-3-ylamine] |
| > 600 | COc1ccccc1Cc1cn(-c2ccc(F)cc2)nc1N [Example 7, 1-(4-Fluorophenyl)-4-(2-methoxybenzyl)-1H-pyrazole-3-ylamine] |
| < 600 | COc1cccc(OC)c1Cn1cc(-c2ccccc2)nc1N [Example 8, 1-(2,6-Dimethoxybenzyl)-4-phenyl-1H-imidazole-2-ylamine hydrochloride] |
| > 600 | COc1ccccc1Cn1cc(-c2ccccc2)nc1NC(C)=O [Example 9, N-[1-(2-Methoxybenzyl)-4-phenyl-1H-imidazole-2-yl]acetamide] |
| < 600 | COc1ccccc1Cn1cc(-c2ccccc2)nc1N [Example 10, 1-(2-Methoxybenzyl)-4-phenyl-1H-imidazole-2-ylamine hydrochloride] |
| > 600 | COc1ccccc1Cn1cc(C(C)(C)C)nc1N [Example 11, 4-tert-Butyl-1-(2-methoxybenzyl)-1H-imidazole-2-ylamine] |
| < 600 | COc1ccccc1Cn1cc(-c2ccc(F)cc2)nc1N [Example 12, 4-(4-Fluorophenyl)-1-(2-methoxybenzyl)-1H-imidazole-2-ylamine] |
| < 600 | COc1ccccc1Cn1cc(-c2cccs2)nc1N [Example 13, 1-(2-Methoxybenzyl)-4-thiophene-2-yl-1H-imidazole-2-ylamine] |
| < 600 | COc1ccccc1Cn1c(N)nc(-c2ccccc2)c1C [Example 14, 1-(2-Methoxybenzyl)-5-methyl-4-phenyl-1H-imidazole-2-ylamine] |
| < 600 | COc1ccccc1Cn1cc(-c2ccco2)nc1N [Example 15, 4-Furan-2-yl-1-(2-methoxybenzyl)-1H-imidazole-2-ylamine hydrochloride] |
| < 600 | COc1ccccc1Cn1cc(-c2ccc3ccccc3c2)nc1N [Example 16, 1-(2-Methoxybenzyl)-4-naphthalene-2-yl-1H-imidazole-2-ylamine hydrochloride] |
| < 600 | COc1ccccc1Cn1cc(-c2csc3ccccc23)nc1N [Example 17, 4-Benzo[b]thiophene-3-yl-1-(2-methoxybenzyl)-1H-imidazole-2-ylamine hydrochloride] |
| < 600 | COc1cccc(OC)c1Cn1cc(-c2ccc(F)cc2)nc1N [Example 18, 1-(2,6-Dimethoxybenzyl)-4-(4-fluorophenyl)-1H-imidazole-2-ylamine] |
| < 600 | COc1cccc(OC)c1Cn1cc(-c2cccs2)nc1N [Example 19, 1-(2,6-Dimethoxybenzyl)-4-thiophene-2-yl-1H-imidazole-2-ylamine] |
| < 600 | COc1ccccc1Cn1cc(-c2ccsc2)nc1N [Example 20, 1-(2-Methoxybenzyl)-4-thiophene-3-yl-1H-imidazole-2-ylamine hydrochloride] |
| > 600 | CCOC(=O)c1cn(Cc2ccccc2OC)c(N)n1 [Example 21, 2-Amino-1-(2-methoxybenzyl)-1H-imidazole-4-carboxylic acid ethyl ester] |
| < 600 | COc1ccccc1Cn1cc(-c2ccc(OC(F)(F)F)cc2)nc1N [Example 22, 1-(2-Methoxybenzyl)-4-(4-trifluoromethoxyphenyl)-1H-imidazole-2-ylamine] |
| < 600 | COc1cccc(-c2cn(Cc3ccccc3OC)c(N)n2)c1 [Example 23, 1-(2-Methoxybenzyl)-4-(3-methoxyphenyl)-1H-imidazole-2-ylamine] |
| < 600 | COc1ccccc1Cn1cc(C23CC4CC(CC(C4)C2)C3)nc1N [Example 24, 4-Adamantane-1-yl-1-(2-methoxybenzyl)-1H-imidazole-2-ylamine] |

| Ki [nM] | Structure (SMILES) |
| --- | --- |
| < 600 | COc1cccc(OC)c1Cn1cc(-c2ccc(C#N)cc2)nc1N [Example 25, 4-[2-Amino-1-(2,6-dimethoxybenzyl)-1H-imidazole-4-yl]benzonitrile hydrochloride] |
| < 600 | COc1ccccc1-c1cn(Cc2c(OC)cccc2OC)c(N)n1 [Example 26, 1-(2,6-Dimethoxybenzyl)-4-(2-methoxyphenyl)-1H-imidazole-2-ylamine hydrochloride] |
| < 600 | COc1ccccc1Cn1cc(-c2ccc(C)cc2)nc1N [Example 27, 1-(2-Methoxybenzyl)-4-p-tolyl-1H-imidazole-2-ylamine] |
| < 600 | COc1cccc(Cl)c1Cn1cc(-c2ccsc2)nc1N [Example 28, 1-(2-Chloro-6-methoxybenzyl)-4-thiophene-3-yl-1H-imidazole-2-ylamine] |
| < 600 | COc1cccc(Cl)c1Cn1cc(-c2ccc(OC(F)(F)F)cc2)nc1N [Example 29, 1-(2-Chloro-6-methoxybenzyl)-4-(4-trifluoromethoxyphenyl)-1H-imidazole-2-ylamine] |
| > 600 | CCOC(=O)c1cc(-c2cn(Cc3ccccc3OC)c(N)n2)on1 [Example 30, 5-[2-Amino-1-(2-methoxybenzyl)-1H-imidazole-4-yl]isoxazole-3-carboxylic acid ethyl ester] |
| < 600 | COc1cccc(F)c1Cn1cc(-c2ccsc2)nc1N [Example 31, 1-(2-Fluoro-6-methoxybenzyl)-4-thiophene-3-yl-1H-imidazole-2-ylamine] |
| < 600 | COc1ccc(-c2cn(Cc3c(Cl)cccc3OC)c(N)n2)cc1 [Example 32, 1-(2-Chloro-6-methoxybenzyl)-4-(4-methoxyphenyl)-1H-imidazole-2-ylamine] |
| < 600 | COc1cccc(F)c1Cn1cc(-c2ccc(C#N)cc2)nc1N [Example 33, 4-[2-Amino-1-(2-fluoro-6-methoxybenzyl)-1H-imidazole-4-yl]benzonitrile] |
| < 600 | COc1cccc(Cl)c1Cn1cc(-c2ccc(Cl)cc2)nc1N [Example 34, 1-(2-Chloro-6-methoxybenzyl)-4-(4-chlorophenyl)-1H-imidazole-2-ylamine] |
| < 600 | COc1ccccc1Cn1cc(-c2ccc(Cl)cc2Cl)nc1N [Example 35, 4-(2,4-Dichlorophenyl)-1-(2-methoxybenzyl)-1H-imidazole-2-ylamine hydrochloride] |
| < 600 | COc1ccccc1Cn1cc(-c2ccc(C)o2)nc1N [Example 36, 1-(2-Methoxybenzyl)-4-(5-methylfuran-2-yl)-1H-imidazole-2-ylamine] |
| < 600 | COc1cccc(Cl)c1Cn1cc(-c2cccs2)nc1N [Example 37, 1-(2-Chloro-6-methoxybenzyl)-4-thiophene-2-yl-1H-imidazole-2-ylamine] |
| < 600 | COc1ccccc1Cn1cc(-c2ccc(C)s2)nc1N [Example 38, 1-(2-Methoxybenzyl)-4-(5-methylthiophene-2-yl)-1H-imidazole-2-ylamine] |
| < 600 | COc1ccccc1Cn1cc(-c2ccc(C(C)C)cc2)nc1N [Example 39, 4-(4-Isopropylphenyl)-1-(2-methoxybenzyl)-1H-imidazole-2-ylamine] |
| < 600 | COc1cccc(OC)c1Cn1cc(-c2ccc(C)c(C)c2)nc1N [Example 40, 1-(2,6-Dimethoxybenzyl)-4-(3,4-dimethylphenyl)-1H-imidazole-2-ylamine hydrochloride] |
| < 600 | COc1ccccc1Cn1c(Cc2ccccc2)cnc1N [Example 41, 5-Benzyl-1-(2-methoxybenzyl)-1H-imidazole-2-ylamine] |
| < 600 | COc1ccccc1Cn1cc(-c2cc3ccccc3o2)nc1N [Example 42, 4-Benzofuran-2-yl-1-(2-methoxybenzyl)-1H-imidazole-2-ylamine] |
| < 600 | COc1ccccc1Cn1cc(-c2cccc3ccccc23)nc1N [Example 43, 1-(2-Methoxybenzyl)-4-naphthalene-1-yl-1H-imidazole-2-ylamine] |
| < 600 | COc1ccccc1Cn1cc(-c2ccc(Oc3ccccc3)cc2)nc1N [Example 44, 1-(2-Methoxybenzyl)-4-(4-phenoxyphenyl)-1H-imidazole-2-ylamine hydrochloride] |
| < 600 | COc1ccccc1Cn1cc(-c2cccc([N+](=O)[O-])c2)nc1N [Example 45, 1-(2-Methoxybenzyl)-4-(3-nitrophenyl)-1H-imidazole-2-ylamine] |
| < 600 | COc1ccccc1Cn1cc(-c2ccc(OC(F)F)cc2)nc1N [Example 46, 4-(4-Difluoromethoxyphenyl)-1-(2-methoxybenzyl)-1H-imidazole-2-ylamine] |
| < 600 | COc1ccccc1Cn1cc(-c2csc(-c3ccccc3)n2)nc1N [Example 47, 1-(2-Methoxybenzyl)-4-(2-phenylthiazole-4-yl)-1H-imidazole-2-ylamine] |
